Experiments:
Assay type in all cases: cell-based
NCI-H23 cells [1] = assay: Selection of resistant populations, cell growth by cell counting under continuous treatment
Procedure: Cell cultures were performed with non-small cell lung (NSCLC) cancer cell line NCI-H23, a KRAS^G12C mutant cell line (heterozygous mutation). The NCI-H23 cell line was purchased from the ATCC. Cells were grown according to the supplier's instructions and maintained at 37° C. in a humidified atmosphere at 5% CO2. Medium was renewed twice a week and cells were passed when the confluence reached 70-80% depending on cell lines. Each cell line was generally kept in passage for no more than 2 months.
(§1) At least 3 to 6 independent populations were treated for each condition. Drugs were renewed twice a week to maintain a high pressure of resistance selection. Cells were harvested, washed and counted approximately ones a week after staining with 0.4% trypan blue (Sigma Aldrich, Saint-Louis, USA) using an automated cell counter (EVE™-Nanoentek).
Cells were seeded in T75 flasks with 5.10^5 cells per flask and incubated 24 hours at 37° C. before addition of AMG-510 (20 μM) with or without AsiDNA (doses ranging from 100 nM to 2500 nM). AsiDNA was added either concomitantly and continuously with the KRAS^G12C inhibitor or two weeks from the AMG-510 treatment start. At least 3 to 6 independent populations were treated for each condition. Drugs were renewed twice a week to maintain a high pressure of resistance selection. Cells were harvested, washed and counted approximately ones a week after staining with 0.4% trypan blue (Sigma Aldrich, Saint-Louis, USA) using an automated cell counter (EVE™-Nanoentek).

NCI-H23 cells [2] = assay: βgal staining (senescence detection)
Procedure: Slow cycling/senescent drug-tolerant cells were identified using Senescence detection kit according to the manufacturer instructions (Abcam; ab65351). Briefly, cells were seeded in 12-well culture plates and incubated overnight at 37° C. Cells were then washed twice with PBS, fixed during 10 minutes with 0.5 ml of Fixative solution at room temperature, washed twice with PBS and then stained using 0.5 ml of the Staining solution mix overnight at 37° C. Cells are then analyzed under microscope for development of blue color.

NCI-H23 cells [3] = assay: Flow cytometry of p16, p21, pPERK and transferrin receptor
Procedure: NCI-H23 were seeded in T25 flasks at 4.105 cells per flask and then treated for 24 h with AsiDNA™ at 100 nM or 5 μM for 24 hours. For intracellular staining (pPERK and CDK p16/CDK p21, mTOR, Bcl-2 staining), cells were washed, then fixed in PBS/70% Ethanol during at least 1 hour at 4° C. Cells were then washed, permeabilized with PBS/0.2% TritonX-100 solution at RT for 30 min, and saturated with PBS/2% Bovine Serum Albumin (BSA) solution at RT for 10 min. Then, cells were washed with PBS and incubated 1 hour with respectively, FITC-conjugated anti pPERK (Biorbyt, UK, 1:120), Alexa647-conjugated anti-CDK p16 (Cell signaling, Danvers Mass., USA, 1:50), Alexa488-conjugated anti-CDK p21 (Cell signaling, Danvers Mass., USA, 1:50), Alexa488-conjugated anti-mTOR (Cell signaling, Danvers Mass., USA, 1:50), Alexa647-conjugated anti-Bcl-2 (Cell signaling, Danvers Mass., USA, 1:50) before flow cytometry analysis (Guava EasyCyte 12H, Luminex, Germany). For cell-surface receptors staining with a PE-conjugated anti-transferrin receptor antibody (Thermofisher, Waltham Mass., USA, 1:20). Stained cells were then washed with PBS and fluorescence intensities were acquired with a Guava EasyCyte 12H flow cytometer (Luminex, Germany). Data were analyzed using FlowJo software (Tree Star, CA, USA), cells were harvested and washed directly after treatment end, and then incubated for 1 hour at 4° C.

MIA PaCa-2 cells = assay: Selection of resistant populations, cell survival by cell counting; conditions: MIA PaCa-2, continuous 1 μM
Procedure: Cells were grown according to the supplier's instructions and maintained at 37° C. in a humidified atmosphere at 5% CO2. Medium was renewed twice a week and cells were passed when the confluence reached 70-80% depending on cell lines. Each cell line was generally kept in passage for no more than 2 months.
as §1

[4] = AMG-510 (20 μM) induced senescent cells vs parental cell line
[5] = NCI-H23 residual cells under treatment vs parental

C=CC(=O)N1CCN(c2nc(=O)n(-c3c(C)ccnc3C(C)C)c3nc(-c4c(O)cccc4F)c(F)cc23)[C@@H](C)C1 [AMG-510]
resistance acquired under continuous treatment (NCI-H23 cells [1]; NCI-H23, AMG-510 20 μM or MRTX-849 1 μM alone): de-novo resistance | time from which cells restarted to divide and entered a proliferative state (NCI-H23 cells [1]; NCI-H23, continuous AMG-510 20 μM alone): two to three | initial sensitivity of cells to the inhibitor (NCI-H23 cells [1]; NCI-H23, continuous high dose/IC90, two first weeks of treatment): very sensitive | β-gal positive staining, cells in a senescent state (NCI-H23 cells [2]; NCI-H23, Day 17 of treatment): 50% | β-gal positive staining, cells in a senescent state (NCI-H23 cells [2]; NCI-H23, Day 27 of treatment): 10% | β-gal positive staining, cells in a senescent state (NCI-H23 cells [2]; NCI-H23, day 10 of treatment): 90% | pPERK level (NCI-H23 cells [3]; [4]): increase | transferrin receptor level (NCI-H23 cells [3]; [4]): increase | p16 expression (NCI-H23 cells [3]; [5]): increases | p21 expression (NCI-H23 cells [3]; [5]): increases | time to emergence of acquired resistance after treatment start (MIA PaCa-2 cells): ~1 month

From patent publication US20230235327A1, “A DBAIT MOLECULE IN COMBINATION WITH KRAS INHIBITOR FOR THE TREATMENT OF CANCER” (ONXEO, priority 2020, published 2023)
